The source of these data is PMC6010079, “Inhibition of dengue virus replication by novel inhibitors of RNA-dependent RNA polymerase and protease activities” (Journal of Enzyme Inhibition and Medicinal Chemistry, 2017).

Several values for one entry are separate records, joined by “and”; a condition that tells them apart may be missing. Identical values can stand only once. Like-named read-outs stand apart in the source and are kept apart here. Bounds are passed on as bounds.

Series [1] has as its system DENV-2. The series is described as follows: Anti-DENV RNA activity: RT-qPCR of DENV RNA in DENV-2-infected Huh-7 cells. It counts as cell-based, DENV-2 (DENV type-2 strain 16681). The note with it: for SI (selectivity index, CC50/EC50 ratio): CC50 in Huh-7 / EC50 DENV-2 RNA. How it is done:
Huh-7 cells were seeded in 24-well plate and infected DENV at an MOI of 0.2 for 2 h and followed by test compound treatment at concentration of 0, 1, 5, 10, 25, 50 and 100 µM for 3 days. The total cellular RNA was harvested by RNA extraction kit[32] following manufacturer’s instrument. DENV RNA and cellular mRNA levels were determined by quantitative real-time reverse-transcription polymerase chain reaction (RT-qPCR) with specific primers. The DENV RNA level was normalised by cellular glyceraldehydes-3-phosphate dehydrogenase (GAPDH) mRNA level. The relative DENV RNA level was calculated by StepOne™ Software v2.2.2 (Applied Biosystems, Foster City, CA, USA) following normalisation of cellular glyceraldehydes-3-phosphate dehydrogenase (GAPDH) mRNA level. The zero dose was defined as 100%. The EC50 values were calculated from non-linear regression curve fitting using GraphPad Prism7 software (San Diego, CA, USA). Results were obtained from three independent experiments.
(Real-time PCR tracks product formation cycle by cycle.)

The target in the next series is T1, DENV NS2B/NS3pro protein (Dengue virus type 2, UniProt P29990).
T1 construct: made in house; host or cells: Escherichia coli BL21 (DE3)
T1 sequence (P29990 1346-1475): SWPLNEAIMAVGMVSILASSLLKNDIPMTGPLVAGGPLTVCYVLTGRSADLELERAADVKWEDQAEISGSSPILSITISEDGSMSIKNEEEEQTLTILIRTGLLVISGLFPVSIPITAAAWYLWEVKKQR
T1 sequence (P29990 1476-1653): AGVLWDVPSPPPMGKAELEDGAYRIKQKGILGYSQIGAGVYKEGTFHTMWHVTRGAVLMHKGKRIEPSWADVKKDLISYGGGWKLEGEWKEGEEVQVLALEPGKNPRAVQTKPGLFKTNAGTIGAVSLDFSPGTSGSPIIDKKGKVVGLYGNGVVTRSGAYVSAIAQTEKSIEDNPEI
Kind of series: Enzyme-based DENV NS2B/NS3 protease assay (Boc-GRR-AMC substrate). The note with it: Enzyme-based EC50 ± SD (DENV-2 NS3 protease), 100 nM NS2B/NS3pro, 10 µM Boc-GRR-AMC, 30 min, 25 °C. It counts as biochemical. How it is done:
The DENV NS2B/NS3pro purification was performed as previously described. Briefly, the pET24b-NS2B-NS3pro plasmid was transformed into competent Escherichia coli BL21 (DE3) and grew in kanamycin (50 µg/mL)-containing LB at 26 °C until OD600 nm reached 0.6. The isopropyl-β-D-thiogalactopyranose was added into the bacterial culture at 0.5 mM for protein induction. After 12-h incubation, cells were collected and subjected to protein purification following previous description.
(§1) For cell-based activity assay, the Huh-7 cells were cotransfected with 0.5 µg of pEG(MITA)SEAP reporter vector and DENV protease expression vector pcDNA-NS2B-GSG-NS3-Myc followed by compound treatment for 3 days. The SEAP activity was analysed by Phospha-Light SEAP Reporter Gene Assay System[40]. The enzyme-based experiment was performed as previously described. Briefly, the 7-amino-4-methylcoumarin (AMC) fluorophore-linked peptide substrate Boc-GRR-AMC[41] and purified DENV NS2B/NS3pro protein were used to analyse DENV NS2B/NS3 protease activity. The 100 nM DENV NS2B/NS3pro protein was incubated with 1, 5 or 10 µM tested compound and 10 µM Boc-GRR-AMC in cleavage buffer (200 mM Tris [pH 9.5], 20% glycerol) for 30 min at 25 °C. The fluorescence signal was detected at excitation wavelength of 380 nm and emission wavelength of 465 nm, respectively.

Series [2] is described as follows: Cell cytotoxicity assay (MTS). The series is classed as cell-based. As to conditions: human, Huh-7 cells, 3 days incubation, read-out: CC50 (half maximal cytotoxicity concentration). How it is done: The Huh-7 cells were seeded in 96-well and treated with test compound at concentration of 0, 10, 25, 50, 100, 150 and 200 µM. After 3 days incubation, the cell viability was determined by CellTiter 96 AQueous One Solution Cell Proliferation Assay (MTS assay) as previously reported. Briefly, the MTS assay buffer was added to the cultured plate following removal of the culture medium. After 2 h of incubation at 37 °C, the absorbance at 492 nm was measured. The cell viability was calculated from non-linear regression curve fitting using GraphPad Prism7. The zero dose was defined as 100%. Results were obtained from three independent experiments.

The next series concerns the target T2, DENV-2 NS3 protease (Dengue virus type 2, UniProt P29990).
T2 construct: DENV protease expression vector pcDNA-NS2B-GSG-NS3-Myc; expressed in transfected cells; host or cells: Huh-7
Kind of series: Cell-based DENV protease reporter assay (pEG(MITA)SEAP + pcDNA-NS2B-GSG-NS3-Myc in Huh-7 cells). As to conditions: 3 days treatment, read-out: Cell-based EC50 ± SD (DENV-2 NS3 protease). How it is done: as §1

Series [3] deals with DENV-2. The series is described as follows: Anti-DENV activity in DENV-infected ICR-suckling mouse model. It counts as in vivo. The note with it: 6-day-old ICR-suckling mice; for Clinical scores and body weight (DENV-induced pathology): 2.5 × 10^5 pfu DENV-2, within 4 to 6 dpi; for Survival rate: DENV-2, compared to untreated mice. The source says: Breeder ICR mice were purchased from BioLasco Taiwan Co. Ltd. The experimental protocol was approved by the Animal Research Committee of Kaohsiung Medical University of Taiwan (IACUC, protocol number 102177). All mice received humane care and fed with standard rodent chew and water ad libitum. Mice were kept under a standard laboratory condition following the Animal Use Protocol of Kaohsiung Medical University. The 6-day-old ICR-suckling mice were intracerebrally injected with DENV-2 followed by intracerebrally injecting saline or test compound at 1, 3, 5 days postinfection (dpi). […] The body weight, clinical scores and survival rate were recorded every day. The mice were sacrificed at 6 dpi.
To access the antiviral activity of compound 3 and 4in vivo, 6-day-old ICR-suckling mice were inoculated with 2.5 × 10^5 pfu of DENV-2 by intracerebral injection and then were administered with compound 3 (10 mg/kg) or 4 (1 mg/kg) by intracerebral injection at 1-, 3- and 5-day postinfection (dpi); inoculation of heat-inactivated DENV-2 (iDENV) served as a mock control.

Series [4] has as its target T3, DENV-2 NS5 RdRp (Dengue virus type 2, UniProt P29990). The series is described as follows: Cell-based RdRp reporter assay (p(+)RLuc-(–)DV-UTRΔC-FLuc + pcDNA-NS5-Myc in Huh-7 cells). The note with it: 3 days treatment. How it is done:
(§2) The cell-based experiments were performed as previously described. Briefly, the Huh-7 cells were transfected with 0.5 µg of p(+)RLuc-(–)DV-UTRΔC-FLuc and DENV NS5 expression vector pcDNA-NS5-Myc followed by compound treatment for 3 days. The RLuc and FLuc activities were analysed by Dual-Glo Luciferase Assay System[37]. The enzyme-based fluorescence-based alkaline phosphatase-coupled polymerase assay (FAPA) was performed as previously described. Briefly, the template was amplified from the cDNA of DENV-2 minus strand 3′-UTR and its RNA was synthesised by the T7 Megascript kit[38]. The 100 nM DENV NS5 protein was incubated with 1, 5 or 10 µM test compound, 100 nM (−) 3′-UTR RNA, 20 µM CTP, GTP, UTP and 20 µM BBT-ATP (Jena Bioscience) in a total volume of 30 µL in assay buffer (50 mM Tris-HCl, pH 7.5, 10 mM KCl, 1 mM MgCl2, 0.3 mM MnCl2, 0.001% Triton X-100 and 10 µM cysteine) at 25 °C for 60 min. The 30 µL of 2.5× stop buffer (200 mM NaCl, 25 mM MgCl2, 1.5 M diethanolamine, pH 10) with 25 nM calf intestinal alkaline phosphatase (Promega) was added to the reaction after 60-min incubation. The fluorescence signal was measured at excitation wavelength of 422 nm and emission wavelength of 566 nm, respectively.
(In a reporter assay the amount or activity of a reporter protein is the signal.)

The target in series [5] is T3, DENV-2 NS5 RdRp. Kind of series: Enzyme-based RdRp activity assay (FAPA). As to conditions: 100 nM DENV NS5 protein, (−) 3′UTR RNA, BBT-ATP, 25 °C, 60 min. Set-up: the supernatant containing His-tagged DENV-2 NS5 protein; His; made in house; host or cells: Sf9 insect cells (baculovirus vAc-DENV-NS5). The series is classed as biochemical. How it is done: The DENV-2 NS5 protein purification was performed as previously described. Briefly, Sf9 cells were infected by the recombinant baculovirus vAc-DENV-NS5 at an MOI of 10 for 3 days. The cells were pelleted by centrifugation at 1000×g for 5 min at 4 °C and washed twice with phosphate-buffered saline (PBS). The cells were suspended in 5 mL of binding buffer (20 mM sodium phosphate, pH 7.5, 300 mM NaCl, 20 mM imidazole) containing protease inhibitor cocktail, and then disrupted by sonication. After centrifugation, the supernatant containing His-tagged DENV-2 NS5 protein was subjected to metal affinity chromatography employing the AKTA prime protein purification system. The eluted DENV-2 NS5 protein was concentrated by an Amicon Ultra-15 30 k centrifugal filter device[36] and then dialysed against PBS overnight at 4 °C.
as §2

Setting [6] is: Dengue virus, DENV2, Huh-7, 72 h, read-out: EC50 ± SD (DENV-2 RNA), Huh-7 cells infected with DENV-2 at MOI 0.2, 3 days treatment, qRT-PCR with primers targeting NS5, normalised to GAPDH.
The mark [7] stands for this setting: 1 mg/kg intracerebral injection at 1, 3, 5 dpi.
The mark [8] stands for this setting: read-out: EC50 ± SD (DENV-2 RNA), Huh-7 cells infected with DENV-2 at MOI 0.2, 3 days treatment, qRT-PCR with primers targeting NS5, normalised to GAPDH.
The mark [9] stands for this setting: Cell-based EC50 ± SD (DENV-2 NS5 RdRp).
The mark [10] stands for this setting: Dengue virus, DENV2, Huh-7, 72 h, Huh-7 cells infected with DENV-2 at MOI 0.2, 3 days treatment, qRT-PCR with primers targeting NS5, normalised to GAPDH, read-out: EC50 ± SD (DENV-2 RNA).
Setting [11] is: Huh-7 cells infected with DENV-2 at MOI 0.2, 3 days treatment, qRT-PCR with primers targeting NS5, normalised to GAPDH, read-out: EC50 ± SD (DENV-2 RNA).
[12] abbreviates: read-out: Enzyme-based EC50 ± SD (DENV-2 NS5 RdRp).
Where [13] appears, read: 10 mg/kg intracerebral injection at 1, 3, 5 dpi.

T3 sequence (P29990 2492-3391): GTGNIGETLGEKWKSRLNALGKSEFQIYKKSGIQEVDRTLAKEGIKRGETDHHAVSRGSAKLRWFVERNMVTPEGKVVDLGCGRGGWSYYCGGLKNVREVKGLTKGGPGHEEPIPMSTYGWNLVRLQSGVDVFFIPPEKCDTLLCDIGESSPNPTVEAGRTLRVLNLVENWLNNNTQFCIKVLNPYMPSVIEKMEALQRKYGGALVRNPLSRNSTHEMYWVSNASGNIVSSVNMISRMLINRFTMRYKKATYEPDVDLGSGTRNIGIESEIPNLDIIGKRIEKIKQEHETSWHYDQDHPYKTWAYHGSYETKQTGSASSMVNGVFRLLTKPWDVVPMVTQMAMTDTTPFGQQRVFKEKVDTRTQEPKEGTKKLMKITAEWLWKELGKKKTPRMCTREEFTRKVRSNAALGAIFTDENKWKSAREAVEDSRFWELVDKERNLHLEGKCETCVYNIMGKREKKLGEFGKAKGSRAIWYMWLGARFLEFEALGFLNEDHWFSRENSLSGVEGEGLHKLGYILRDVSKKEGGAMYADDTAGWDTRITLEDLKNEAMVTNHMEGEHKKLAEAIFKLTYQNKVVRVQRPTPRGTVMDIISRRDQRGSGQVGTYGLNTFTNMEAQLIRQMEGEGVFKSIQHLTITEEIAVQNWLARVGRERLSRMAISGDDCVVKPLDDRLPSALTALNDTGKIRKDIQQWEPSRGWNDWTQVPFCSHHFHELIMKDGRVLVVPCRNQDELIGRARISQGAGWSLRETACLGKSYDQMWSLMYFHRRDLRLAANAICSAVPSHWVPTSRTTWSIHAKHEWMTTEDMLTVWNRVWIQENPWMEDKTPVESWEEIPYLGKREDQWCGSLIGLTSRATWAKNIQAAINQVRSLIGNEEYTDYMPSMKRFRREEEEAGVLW
T2 sequence (P29990 1476-2093): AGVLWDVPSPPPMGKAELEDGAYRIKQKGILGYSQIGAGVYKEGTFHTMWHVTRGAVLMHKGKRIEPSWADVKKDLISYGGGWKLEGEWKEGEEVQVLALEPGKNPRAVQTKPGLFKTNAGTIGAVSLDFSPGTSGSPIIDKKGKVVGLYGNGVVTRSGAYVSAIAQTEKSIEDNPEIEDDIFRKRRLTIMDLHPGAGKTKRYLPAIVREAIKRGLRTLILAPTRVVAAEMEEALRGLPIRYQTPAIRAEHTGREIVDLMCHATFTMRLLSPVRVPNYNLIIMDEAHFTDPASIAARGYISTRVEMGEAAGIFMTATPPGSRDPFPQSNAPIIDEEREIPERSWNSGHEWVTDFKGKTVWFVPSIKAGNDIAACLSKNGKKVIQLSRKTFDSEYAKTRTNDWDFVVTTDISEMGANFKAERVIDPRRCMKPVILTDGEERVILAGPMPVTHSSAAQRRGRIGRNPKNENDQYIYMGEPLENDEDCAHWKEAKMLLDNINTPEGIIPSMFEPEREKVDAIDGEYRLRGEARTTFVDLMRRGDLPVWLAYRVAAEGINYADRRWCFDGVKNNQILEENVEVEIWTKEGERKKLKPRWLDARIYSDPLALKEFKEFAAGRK

What is called EC50 is the concentration that produces a half-maximal response. `COC(=O)c1[nH]c2ccc(Cl)cc2c1C(=O)c1cc(OC)c(O)c(OC)c1` [Compound 4, Methyl 5-chloro-3–(4-hydroxy-3,5-dimethoxybenzoyl)-1H-indole-2-carboxylate]: in the series on DENV-2 [1], the “SI (selectivity index, CC50/EC50 ratio)” value came out at 39.3. Further, the EC50 in the series with DENV-2 [1] (setting [6]) was 4.6 ± 0.3 µM; on DENV NS2B/NS3pro protein it was 4.72 µM and 4.7 µM; at DENV-2 NS3 protease, 6.71 µM and 6.7 µM. Further, the CC50 at 3 days in series [2] is 181 µM. Also, the “Clinical scores and body weight (DENV-induced pathology)” value with DENV-2 [3] (setting [7]) is given as “reduced DENV-induced pathology”. The Survival rate result in the series with DENV-2 [3] (setting [7]) was “significantly protected the mice”.

Consider `COC(=O)c1[nH]c2ccc(Cl)cc2c1Cc1cc(OC)cc(OC)c1` [Compound 5, Methyl 5-chloro-3–(3,5-dimethoxybenzyl)-1H-indole-2-carboxylate], for which, in the series with DENV-2 [1], the “SI (selectivity index, CC50/EC50 ratio)” value was more than 27.4. Moreover, the half-maximal effective concentration (EC50) with DENV-2 [1] (setting [6]) was 7.28 ± 0.13 µM; with DENV-2 [1] (setting [8]) it was 7.3 ± 0.3 µM; at DENV-2 NS3 protease, 7.92 µM and 7.9 µM. Besides, the CC50 at 3 days in series [2] was more than 200 µM.

On to `CCOC(=O)c1cnn(C)c1NS(=O)(=O)c1ccc(-n2cccc2C(=O)c2ccccc2)cc1` [Compound 2, Ethyl 5–(4-(2-benzoyl-1H-pyrrol-1-yl)phenylsulphonamido)-1-methyl-1H-pyrazole-4-carboxylate], for which the EC50 is 7.22 µM and 7.2 µM at DENV-2 NS5 RdRp [4] (setting [9]); 7.61 ± 0.36 µM in the series with DENV-2 [1] (setting [10]); 7.6 ± 0.4 µM with DENV-2 [1] (setting [11]); 5.34 µM and 5.3 µM at DENV-2 NS5 RdRp [5] (setting [12]). Moreover, the “SI (selectivity index, CC50/EC50 ratio)” value in the series on DENV-2 [1] is on record as more than 26.3. The CC50 at 3 days in series [2] was more than 200 µM.

In the case of `CCOC(=O)c1cnn(C)c1N(S(=O)(=O)c1ccc(Cl)cc1)S(=O)(=O)c1ccc(Cl)cc1` [Compound 1, Ethyl 5–(4-chloro-N-((4-chlorophenyl)sulphonyl)phenylsulphonamido)-1-methyl-1H-pyrazole-4-carboxylate], the concentration for a half-maximal effect (EC50) on DENV-2 NS5 RdRp [4] (setting [9]) is 8.07 µM and 8.1 µM; with DENV-2 [1] (setting [10]), 11.1 ± 0.21 µM; in the series with DENV-2 [1] (setting [8]) it was 11.7 ± 0.2 µM; on DENV-2 NS5 RdRp [5] (setting [12]), 7.78 µM and 7.8 µM. Also, the “SI (selectivity index, CC50/EC50 ratio)” value in the series with DENV-2 [1] worked out at 17.7. For the same compound, in series [2], the CC50 at 3 days amounted to 196 µM.

As to `CCOC(=O)c1cnn(-c2ccccc2)c1N(S(=O)(=O)c1ccc([N+](=O)[O-])cc1)S(=O)(=O)c1ccc([N+](=O)[O-])cc1` [Compound 3, Ethyl 5–(4-nitro-N-((4-nitrophenyl)sulphonyl)phenylsulphonamido)-1-phenyl-1H-pyrazole-4-carboxylate], the EC50 at DENV-2 NS5 RdRp [4] (read-out: Cell-based EC50 ± SD (DENV-2 NS5 RdRp)) was 5.99 µM and 6 µM; in the series on DENV-2 [1] (setting [10]) it was 5.66 ± 0.25 µM; in the series with DENV-2 [1] (setting [11]), 5.7 ± 0.3 µM; at DENV-2 NS5 RdRp [5] (Enzyme-based EC50 ± SD (DENV-2 NS5 RdRp)) it was 4.87 µM and 4.9 µM. The “SI (selectivity index, CC50/EC50 ratio)” value with DENV-2 [1] is on record as more than 35.1. For the same compound, the CC50 at 3 days in series [2] is more than 200 µM. Further, in the series on DENV-2 [3] (setting [13]), the “Clinical scores and body weight (DENV-induced pathology)” value was “reduced DENV-induced pathology”. For the same compound, in the series with DENV-2 [3] (setting [13]), the Survival rate result is reported as “significantly protected the mice”.
